One data set deals with advanced pancreatic NET. As to conditions: patients with advanced pancreatic NET; cited from earlier work. An excerpt: Other treatment modalities that have shown promise as antiproliferative agents for advanced NET include mTOR or tyrosine kinase inhibitors. […] The combination of everolimus and octreotide LAR also stabilised tumour growth in patients with carcinoid NET [32].

A short description of data set [1]: Lanreotide trough serum levels (validated RIA with 125I-labelled lanreotide). It counts as in vivo, human (patients). As to conditions: human, subcutaneous, mean ± SD. As for the experimental part: Efficacy (radiological, biochemical and clinical) and pharmacokinetic (PK) assessments were performed every 12 weeks and at the final study evaluation, 28 (±5) days after the final lanreotide dose. AEs and concomitant treatments were recorded at each 4-weekly treatment visit and at the final evaluation.
(§1) Safety analyses included AEs (coded using the Medical Dictionary for Regulatory Activities [MedDRA] version 11.1), vital signs, and serum haematology and biochemistry. Blood samples for analysis of lanreotide trough serum levels and, if applicable, for evaluation of the presence and specificity of anti-lanreotide antibodies were collected at screening and at weeks 8, 20, 32, 44, 56, 68 and 92, just before drug administration.
(§2) Tumour biomarkers, serum lanreotide concentrations and anti-lanreotide antibodies were analysed in a central laboratory. Serum CgA levels were determined using a radioimmunoassay (RIA) with coefficients of variation (CVs) of 6–10% (Cisbio International, Gif-sur-Yvette, France), and urinary 5-HIAA levels were measured using high-performance liquid chromatography with CVs of 4–6% (Bio-rad Laboratories GmbH, München, Germany). Circulating lanreotide concentrations were measured using a validated RIA with [^125I]-labelled lanreotide as a competitor for the quantification of lanreotide. During assay validation, the lower limit of quantification for lanreotide was 0.078 ng/mL and CVs were 2.3–13.6%. Anti-lanreotide antibodies were detected using a radioimmunoprecipitation assay (RIPA) with […] for immune-complex precipitation and [^125I]-labelled lanreotide as the tracer. Results were expressed as the percentage of precipitation. During validation, the assay sensitivity was 1/3,200,000 using a rabbit polyclonal anti-lanreotide antibody and intra- and inter-assay precision values were <5.7% and <5.3%, respectively. The screening assay cutpoint was determined as the 95th percentile of the distribution obtained with pre-treatment samples from 22 patients from the study. […]

Data set [2] is described as follows: Anti-lanreotide antibodies (radioimmunoprecipitation assay with confirmatory competition). Format: in vivo, human (patients). The note with it: RIPA.
From the text: as §1
as §2, with “precipitation.” for “precipitation. During validation, the assay sensitivity was 1/3,200,000 using a rabbit polyclonal anti-lanreotide antibody and intra- and inter-assay precision values were <5.7% and <5.3%, respectively. The screening assay cutpoint was determined as the 95th percentile of the distribution obtained with pre-treatment samples from 22 patients from the study.”

Consider `CCN(CC)CCNC(=O)c1c(C)[nH]c(/C=C2\C(=O)Nc3ccc(F)cc32)c1C` [sunitinib], for which the PFS in the data set on advanced pancreatic NET is reported as 11.4 months.

Consider `CC(C)[C@@H]1NC(=O)[C@H](CCCCN)NC(=O)[C@@H](Cc2c[nH]c3ccccc23)NC(=O)[C@H](Cc2ccc(O)cc2)NC(=O)[C@@H](NC(=O)[C@H](N)Cc2ccc3ccccc3c2)CSSC[C@@H](C(=O)N[C@H](C(N)=O)[C@@H](C)O)NC1=O` [lanreotide], for which, in data set [1] (week 20, after five injections of 120 mg every 28 days, n = 27, read-out: Steady-state trough serum lanreotide level), the level at 3360 h came to 5.2 ± 2 ng/mL. Also, the level at 5376 h in data set [1] (week 32, 120 mg every 28 days, read-out: Mean trough serum lanreotide level (maximum)) came to 6 ± 2.9 ng/mL. Further, in data set [1] (week 92, 120 mg every 28 days, read-out: Mean trough serum lanreotide concentration), the level at 15456 h is 5.3 ± 2 ng/mL. Besides, in data set [2] (assessments after week 8, two patients, one of them temporarily), the “Patients with anti-lanreotide antibodies detected” value turned out to be 7%. Besides, the “Anti-lanreotide antibodies in serum” value in data set [2] (week 8, all 25 patients tested) is “negative”.

For `CO[C@H]1C[C@@H]2CC[C@@H](C)[C@@](O)(O2)C(=O)C(=O)N2CCCC[C@H]2C(=O)O[C@H]([C@H](C)C[C@@H]2CC[C@@H](OCCO)[C@H](OC)C2)CC(=O)[C@H](C)/C=C(\C)[C@@H](O)[C@@H](OC)C(=O)[C@H](C)C[C@H](C)/C=C/C=C/C=C/1C` [everolimus], the PFS in the data set on advanced pancreatic NET was 11.0 months.

The record behind these values is paper PMC3853091, “Antiproliferative effects of lanreotide autogel in patients with progressive, well-differentiated neuroendocrine tumours: a Spanish, multicentre, open-label, single arm phase II study” (BMC Cancer, 2013).
